A word on the pEC50: it is −log10 of the EC50, conventionally taken in molar units.

These results are taken from US10633354B2, “Substituted tricyclic heterocyclic compounds” (BRISTOL-MYERS SQUIBB COMPANY, priority 2016, dated 2020).

pEC50: −log10 of the molar value.

Assay [1] concerns the target T1, S1P3 (Homo sapiens, UniProt Q99500).
T1 construct: expressed in transfected cells; host or cells: HEK293T cells (EDG3-Ga15-bla), membranes
In words: Receptor [35S] GTPγS binding assay (S1P3 GTPγS). It counts as biochemical. Conditions: membranes from EDG3-Ga15-bla HEK293T cells; read-out: S1P3 GTPgS (EC50). Here is the method: (§1) The compounds of Formula (I), Formula (II), Formula (III), and Formula (IV), and salts thereof in which R2 is —OH, engage their biological targets (e.g. S1P1) after bioactivation through phosphorylation of the alcohol to provide an active phosphate ester compound of Formula (I), Formula (II), Formula (III), and Formula (IV), or salts thereof, in which R2 is —OP(O)(OH)2. In vitro characterization of biological activity of the examples was conducted on synthetically prepared samples of the phosphorylated compounds.
(§2) Receptor [^35S] GTPyS Binding Assays: (S1P1 GTPyS/S1P3 GTPyS)
(§3) Compounds were loaded in a 384 Falcon v-bottom plate (0.5 μl/well in a 11 point, 3-fold dilution). Membranes prepared from S1Pi/CHO cells or EDG3-Ga15-bla HEK293T cells (EDG3 equivalent S1P3) were added to the compound plate (40 μl/well, final protein 3 μg/well) with MULTIDROP®. [^35S] GTP (1250 Ci/mmol, Perkin Elmer) was diluted in assay buffer: 20 mM HEPES, pH7.5, 10 mM MgCl2, 150 mM NaCl, 1 mM EGTA (ethylene glycol tetraacetic acid), 1 mM DTT (Dithiothreitol), 10 μM GDP, 0.1% fatty acid free BSA, and 10 μg/ml Saponin to 0.4 nM. 40 μl of the [^35S] GTP solution was added to the compound plate with a final concentration of 0.2 nM. The reaction mixture was kept at room temperature for 45 min. At the end of incubation, all the mixtures in the compound plate were transferred to Millipore 384-well FB filter plates via the VELOCITY 11® Vprep liquid handler. The filter plate was washed with water 4 times by using the manifold Embla plate washer and dried at 60° C. for 45 min. MicroScint 20 scintillation fluid (30 μl) was added to each well for counting on the Packard TOPCOUNT®. ECso is defined as the agonist concentration that corresponds to 50% of the Ymax (maximal response) obtained for each individual compound tested.
(§4) A smaller value for GTPyS S1 P1 EC50 value indicated greater activity for the compound in the GTPyS S1P1 binding assay. A larger value for the GTPyS S1 P3 EC50 value indicated less activity in the GTPyS S1 P3 binding assay (Table A).

Assay [2] addresses T2, S1P1 (Homo sapiens, UniProt P21453).
T2 construct: expressed in transfected cells; host or cells: CHO cells (S1P1/CHO), membranes
Kind of assay: Receptor [35S] GTPγS binding assay (S1P1 GTPγS). The note with it: membranes from S1P1/CHO cells; for S1P1 GTPgS (Ymax): maximal response; for pEC50: phosphorylated compounds, read-out: S1P1 GTPgS (EC50). It counts as biochemical. Here is the method: as §1, §2, §3, §4
On the technique in general: GTPγS resists hydrolysis and so accumulates on activated G proteins.

T1 sequence (Q99500 whole entry): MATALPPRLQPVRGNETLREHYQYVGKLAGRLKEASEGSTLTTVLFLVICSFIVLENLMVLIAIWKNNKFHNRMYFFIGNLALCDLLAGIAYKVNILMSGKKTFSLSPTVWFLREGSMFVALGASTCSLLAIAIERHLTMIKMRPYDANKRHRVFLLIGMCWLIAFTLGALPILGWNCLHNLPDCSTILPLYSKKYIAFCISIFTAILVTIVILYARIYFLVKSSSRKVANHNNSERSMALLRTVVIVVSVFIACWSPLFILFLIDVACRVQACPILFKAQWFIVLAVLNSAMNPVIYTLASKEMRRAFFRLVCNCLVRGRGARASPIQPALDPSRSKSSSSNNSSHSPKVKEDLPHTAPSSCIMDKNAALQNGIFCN
T2 sequence (P21453 whole entry): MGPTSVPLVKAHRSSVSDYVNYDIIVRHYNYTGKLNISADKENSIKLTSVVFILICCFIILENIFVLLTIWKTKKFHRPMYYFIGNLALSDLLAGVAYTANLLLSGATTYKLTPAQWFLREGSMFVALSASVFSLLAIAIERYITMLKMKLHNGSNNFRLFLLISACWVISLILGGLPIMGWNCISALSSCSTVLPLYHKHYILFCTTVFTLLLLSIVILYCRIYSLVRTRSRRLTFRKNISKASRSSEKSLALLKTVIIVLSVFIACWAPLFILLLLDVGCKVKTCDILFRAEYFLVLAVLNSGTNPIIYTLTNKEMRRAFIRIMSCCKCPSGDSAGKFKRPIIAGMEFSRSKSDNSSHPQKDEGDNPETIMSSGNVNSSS

In the case of `CCCCOCCOc1nc2c(s1)-c1ccc([C@H]3CC[C@](N)(COP(=O)(O)O)C3)cc1CC2` [Example 26, ((1R,3S)-1-amino-3-(2-(2-butoxyethoxy)-4,5-dihydronaphtho[2,1-d]thiazol-7-yl)cyclopentyl)methyl Dihydrogen Phosphate], the pEC50 in assay [1] was 6.72. For the same compound, in assay [2], the “S1P1 GTPgS (Ymax)” value came out at 107% and the pEC50 is 9.00.
On the same counts, the results for `CCCCCCCc1nc2c(s1)-c1ccc([C@H]3CC[C@](N)(COP(=O)(O)O)C3)cc1CC2` [Example 27] are below 5.52, 98% and 8.00.
Turning to `CCCc1nc2c(s1)-c1ccc([C@H]3CC[C@](N)(COP(=O)(O)O)C3)cc1CC2` [Example 28], the pEC50 in assay [1] was below 5.52; in assay [2] it was 7.72. Also, the “S1P1 GTPgS (Ymax)” value in assay [2] was determined as 79%.
On the same counts, the results for `CCCCOc1nc2c(s1)-c1ccc([C@H]3CC[C@](N)(COP(=O)(O)O)C3)cc1CC2` [Example 29] are below 5.52, 7.52 and 58%.
Turning to `CCCCCCOc1nc2c(s1)-c1ccc([C@H]3CC[C@](N)(COP(=O)(O)O)C3)cc1CC2` [Example 30, ((1R,3S)-1-amino-3-(2-(hexyloxy)-4,5-dihydronaphtho[2,1-d]thiazol-7-yl)cyclopentyl) methyl dihydrogen phosphate], the pEC50 in assay [1] is below 5.52. Besides, in assay [2], the “S1P1 GTPgS (Ymax)” value is reported as 102% and the pEC50 is 7.92.
`CCCCSc1nc2c(s1)-c1ccc([C@H]3CC[C@](N)(COP(=O)(O)O)C3)cc1CC2` [Example 31, ((1R,3S)-1-amino-3-(2-(butylthio)-4,5-dihydronaphtho[2,1-d]thiazol-7-yl)cyclopentyl)methyl dihydrogen phosphate]: the pEC50 in assay [1] is below 5.52. In assay [2], the “S1P1 GTPgS (Ymax)” value is 58% and the pEC50 was 7.70.
As to `CCCCNc1nc2c(s1)-c1ccc([C@H]3CC[C@](N)(COP(=O)(O)O)C3)cc1CC2` [Example 32, ((1R,3S)-1-amino-3-(2-(butylamino)-4,5-dihydronaphtho[2,1-d]thiazol-7-yl)cyclopentyl)methyl dihydrogen phosphate], in assay [1], the negative logarithm of the EC50 (pEC50) is below 5.52. In addition, in assay [2], the “S1P1 GTPgS (Ymax)” value came to 49% and the pEC50 was 6.88.
